Source: patent US20250136617A1 (The Regents of the University of Colorado, A Body Corporate, priority 2022, published 2025)
“Also recorded” adds a separate entry of the source.

Tests used:
Assay type in all cases: cell-based
CXCR4 [1] = target: T1, CXCR4 (Homo sapiens, UniProt P61073); assay: primary 1536 w β-arrestin recruitment assay (FRET, β-lactamase reporter) in U2OS cells overexpressing CXCR4; set-up: host or cells: U2OS
Description: In an effort to identify CXCR4 activators from the NIH Molecular Library Small Molecule Repository (MLSMR), a primary screening assay was developed to measure β-arrestin recruitment to the activated G-protein coupled receptor by Florescence Resonance Energy Transfer (FRET) in U2OS cells overexpressing the CXCR4 receptor engineered with a β-lactamase (bla) reporter system (Invitrogen cat #K1779). CXCR4-bla cells plated in 1536 w were stimulated in the presence of 10 uM compound concentration. […] Using this approach, 370,620 compounds from the NIH MLSMR were successfully screened and 303 hits were identified (hit rate=0.08%; Z′=0.83). […] These compounds were graded according to activity and structure resulting in 86 compounds that met criteria as potential CXCR4 agonists for further characterization.
Chemical stability, synthetic tractability, solubility and complete dose response and potency criteria led to the prioritization of the 5-aryl-2-cyclopropyl oxazole scaffold, represented by primary hit Compound 2 (Table 1). Early structure-activity relationship was established around the 5-aryl-2-cyclopropyl oxazole core with commercially available analogs with diverse substituents in the sulfonanilide ring of the scaffold. […] Keeping the 2-OMe substituent constant a small set of electron withdrawing and electron rich substituents at the 5-position of the anilide ring were screened (entries 16-19).

miR-15b = miR-15b expression in murine diabetic and non-diabetic fibroblasts; settings: 24 h, response even at 0.1 μM; listed as UCUF-965
Description: Total RNA was extracted with TRIzol reagent (Invitrogen, Carlsbad, CA, USA) according to the manufacturer's established protocol. RNA was converted into cDNA using the SuperScript First-Strand Synthesis System (Invitrogen, Life Technologies). Primers and probes for mouse miR-15b and miR-29a were acquired from Applied Biosystems TaqMan gene expression assay (Applied Biosystems, Foster City, CA). Quantitative PCR was performed on a BIO-RAD CFX96 according to the manufacturer's instructions. Quantitative values of genes of interest are normalized based on U6. Samples (n=5 per group) were amplified in triplicate and results were averaged for each individual sample. The ΔΔCT method was used to calculate relative gene expression. Results are reported as mean±SD.
The expression of specific micro-RNA levels reported to be crucial in the wound-healing process were measured in order to validate and correlate the in vitro activity of UCUF-965 as a selective CXCR4 receptor modulator to micro-RNA expression. Murine diabetic and non-diabetic fibroblasts were cultured with increasing concentrations of the compound. The cells were incubated for 24 h and then total cellular RNA was isolated to examine the ability of the compound to correct the abnormal expression levels of miR-15b, miR-29a, and miR-146a. […]

CXCR4 [2] = target: T1, CXCR4; assay: Calcium flux (Fluo-4) in CEM-CCRF cells; set-up: host or cells: CEM-CCRF; settings: 10 μM; listed as UCUF-965
Description: Fluo-4 Direct Calcium Assay Kit (Invitrogen; F10472) reagents were prepared according to the supplier guidelines at 2× concentration and allowed to equilibrate to room temperature in the dark. […] Following incubation, 25 μL of cell suspension loaded with Fluo-4 Direct Calcium reagent was dispensed into a 384-well black wall clear-bottom plate (Corning; 3764). […] Calcium flux responses were measured on the BMG LABTECH CLARIOstar Plus (BMG LABTECH Inc., Cary, NC) using the CLARIOstar Plus supplier excitation and emission settings for Fluo-4 (Calcium Saturated). Measurements were conducted using a bottom-read kinetic well-mode with measurements occurring at 0.5 sec intervals for 150 sec and injection occurring at 10.0 sec.

T1 sequence (P61073 whole entry): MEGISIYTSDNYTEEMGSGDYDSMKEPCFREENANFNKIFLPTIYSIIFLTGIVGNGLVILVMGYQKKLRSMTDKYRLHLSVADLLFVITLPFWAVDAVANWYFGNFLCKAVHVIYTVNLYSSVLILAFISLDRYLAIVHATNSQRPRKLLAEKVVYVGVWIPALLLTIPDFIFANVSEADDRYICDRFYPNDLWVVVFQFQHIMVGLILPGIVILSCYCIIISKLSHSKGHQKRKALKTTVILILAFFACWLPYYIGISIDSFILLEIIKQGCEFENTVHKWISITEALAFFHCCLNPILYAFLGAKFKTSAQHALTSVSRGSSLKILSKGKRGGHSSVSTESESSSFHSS

| SMILES | EC50 (CXCR4 [1]; 1536 w screening platform) [nM] | CXCR4 b-arrestin Emax (%) (CXCR4 [1]; 1536 w, normalized to SDF-1α) | miR-15b expression (miR-15b) | calcium flux activity (CXCR4 [2]) |
| --- | --- | --- | --- | --- |
| COc1ccc(OC)c(NS(=O)(=O)c2ccc(-c3cnc(C4CC4)o3)cc2)c1 [Oxazole Entry 19, 4-(2-Cyclopropyloxazol-5-yl)-N-(2,5-dimethoxyphenyl)benzenesulfonamide] | 1100 | 60 |  |  |
| CCOc1ccccc1-c1nnc2n1N=C(c1ccc(N3CCCC3)cc1)CS2 [Thiadiazine Entry 23, 3-(2-ethoxyphenyl)-6-(4-(pyrrolidin-1-yl)phenyl)-7H-[1,2,4]triazolo[3,4-b][1,3,4]thiadiazine] |  |  | decreased the expression of miR-15b; also recorded: suppression of miR15b | induce CXCR4-mediated calcium flux |
